Results reported in ChEMBL document CHEMBL1156794, “Synthesis and antimicrobial evaluation of amphiphilic neamine derivatives” (J Med Chem, 2010).
Converted amounts (≈) assume the structure as drawn.

Tests used:
Staphylococcus aureus [1] = test: Antibacterial activity against Staphylococcus aureus ATCC 25923 after 24 hrs by geometric microdilution method; type: functional; settings: ATCC 25923, 24 h
Staphylococcus aureus [2] = test: Antibacterial activity against NorA pump expressing Staphylococcus aureus after 24 hrs by geometric microdilution method; type: functional
Staphylococcus aureus [3] = test: Antibacterial activity against aminoglycoside-3'-O-phosphoryltransferase expressing Staphylococcus aureus after 24 hrs by geometric microdilution method; type: functional
Staphylococcus aureus [4] = test: Antibacterial activity against aminoglycoside-4'-O-phosphoryltransferase expressing Staphylococcus aureus after 24 hrs by geometric microdilution method; type: functional
Staphylococcus aureus [5] = test: Antibacterial activity against MsrA pump expressing Staphylococcus aureus after 24 hrs by geometric microdilution method; type: functional
Staphylococcus aureus [6] = test: Antibacterial activity against aminoglycoside-6'-N-acetyltransferase/2''-O-phosphoryltransferase expressing Staphylococcus aureus after 24 hrs by geometric microdilution method; type: functional
Pseudomonas aeruginosa [7] = test: Antibacterial activity against MexEF expressing Pseudomonas aeruginosa PA03 after 24 hrs by geometric microdilution method; type: functional; settings: PA03, 24 h
Pseudomonas aeruginosa [8] = test: Antibacterial activity against Pseudomonas aeruginosa ATCC 27853 after 24 hrs by geometric microdilution method; type: functional; settings: ATCC 27853, 24 h
Pseudomonas aeruginosa [9] = test: Antibacterial activity against MexAB, MexCD, MexEF, MexXY, TriABC deleted Pseudomonas aeruginosa PA406 after 24 hrs by geometric microdilution method; type: functional; settings: PA406, 24 h
Pseudomonas aeruginosa [10] = test: Antibacterial activity against MexXY expressing Pseudomonas aeruginosa PT629 after 24 hrs by geometric microdilution method; type: functional; settings: PT629, 24 h
Staphylococcus aureus [11] = test: Antibacterial activity against vancomycin-resistant Staphylococcus aureus VRS-2 after 24 hrs by geometric microdilution method; type: functional; settings: VRS-2, 24 h
Pseudomonas aeruginosa [12] = test: Antibacterial activity against MexCD expressing Pseudomonas aeruginosa PA01 after 24 hrs by geometric microdilution method; type: functional; settings: PA01, 24 h
Escherichia coli [13] = test: Antibacterial activity against AAC6'-2b expressing Escherichia coli PAZ505H8101 after 24 hrs by geometric microdilution method; type: functional; settings: PAZ505H8101, 24 h
Pseudomonas aeruginosa [14] = test: Antibacterial activity against TriABC expressing MexAB, MexCD, MexEF, MexXY deleted Pseudomonas aeruginosa PA405 after 24 hrs by geometric microdilution method; type: functional; settings: PA405, 24 h
Escherichia coli [15] = test: microbe, parasite or virus in culture; settings: ATCC 25922, 24 h
Description: Antibacterial activity against Escherichia coli ATCC 25922 after 24 hrs by geometric microdilution method

Klebsiella pneumoniae = test: Antibacterial activity against Klebsiella pneumoniae ATCC 700603 after 24 hrs by geometric microdilution method; type: functional; settings: ATCC 700603, 24 h
Acinetobacter lwoffii [16] = test: Antibacterial activity against […] expressing Acinetobacter lwoffii AI.88-483 after 24 hrs by geometric microdilution method; type: functional; settings: AI.88-483, 24 h
Escherichia coli [17] = test: Antibacterial activity against ANT2'-2a expressing Escherichia coli L58058.1 after 24 hrs by geometric microdilution method; type: functional; settings: L58058.1, 24 h
Pseudomonas aeruginosa [18] = test: Antibacterial activity against MexAB expressing Pseudomonas aeruginosa PA21 after 24 hrs by geometric microdilution method; type: functional; settings: PA21, 24 h
Pseudomonas aeruginosa [19] = test: Antibacterial activity against AAC6'-2a expressing Pseudomonas aeruginosa F03 after 24 hrs by geometric microdilution method; type: functional; settings: F03, 24 h
Pseudomonas aeruginosa [20] = test: Antibacterial activity against Pseudomonas aeruginosa PAO1 after 24 hrs by geometric microdilution method; type: functional; settings: PAO1, 24 h
Staphylococcus aureus [21] = test: Antibacterial activity against methicillin-resistant Staphylococcus aureus ATCC 33592 clinical isolate after 24 hrs by geometric microdilution method; type: functional; settings: ATCC 33592, 24 h
Acinetobacter lwoffii [22] = test: microbe, parasite or virus in culture; settings: ATCC 17925, 24 h
Description: Antibacterial activity against Acinetobacter lwoffii ATCC 17925 after 24 hrs by geometric microdilution method

Pseudomonas aeruginosa [23] = test: Antibacterial activity against MexXY expressing Pseudomonas aeruginosa PA22 after 24 hrs by geometric microdilution method; type: functional; settings: PA22, 24 h

Compound | MIC (Staphylococcus aureus [1]) [µg/mL] | MIC (Staphylococcus aureus [2]) [µg/mL] | MIC (Staphylococcus aureus [3]) [µg/mL] | MIC (Staphylococcus aureus [4]) [µg/mL] | MIC (Staphylococcus aureus [5]) [µg/mL] | MIC (Staphylococcus aureus [6]) [µg/mL] | MIC (Pseudomonas aeruginosa [7]) [µg/mL] | MIC (Pseudomonas aeruginosa [8]) [µg/mL] | MIC (Pseudomonas aeruginosa [9]) [µg/mL] | MIC (Pseudomonas aeruginosa [10]) [µg/mL] | MIC (Pseudomonas aeruginosa [12]) [µg/mL] | MIC (Escherichia coli [13]) [µg/mL] | MIC (Pseudomonas aeruginosa [14]) [µg/mL] | MIC (Klebsiella pneumoniae) [µg/mL] | MIC (Acinetobacter lwoffii [16]) [µg/mL] | MIC (Escherichia coli [17]) [µg/mL] | MIC (Pseudomonas aeruginosa [18]) [µg/mL] | MIC (Pseudomonas aeruginosa [19]) [µg/mL] | MIC (Pseudomonas aeruginosa [20]) [µg/mL] | MIC (Staphylococcus aureus [21]) [µg/mL] | also measured
NC[C@H]1O[C@H](O[C@H]2[C@H](O)[C@@H](OCc3ccccn3)[C@H](N)C[C@@H]2N)[C@H](N)[C@@H](OCc2ccccn2)[C@@H]1OCc1ccccn1 | > 128 | > 128 | > 128 | > 128 | > 128 | > 128 | – | – | – | – | – | – | – | – | – | – | – | – | – | – | –
NC[C@H]1O[C@H](O[C@H]2[C@H](O)[C@@H](OCc3ccccn3)[C@H](N)C[C@@H]2N)[C@H](N)[C@@H](OCc2ccccn2)[C@@H]1O | > 128 | > 128 | > 128 | > 128 | > 128 | > 128 | – | – | – | – | – | – | – | – | – | – | – | – | – | – | –
NC[C@H]1O[C@H](O[C@H]2[C@H](O)[C@@H](O)[C@H](N)C[C@@H]2N)[C@H](N)[C@@H](OCc2ccc3ccccc3c2)[C@@H]1OCc1ccc2ccccc2c1 | 4 (≈ 6.64 µM) | 8 (≈ 13.3 µM) | 4 (≈ 6.64 µM) | 8 (≈ 13.3 µM) | 8 (≈ 13.3 µM) | 8 (≈ 13.3 µM) | 8 (≈ 13.3 µM) | 32 (≈ 53.1 µM) | 8 (≈ 13.3 µM) | > 128 | 16 (≈ 26.5 µM) | 16 (≈ 26.5 µM) | 8 (≈ 13.3 µM) | > 128 | > 128 | 16 (≈ 26.5 µM) | 64 (≈ 106 µM) | > 128 | 64 (≈ 106 µM) | 8 (≈ 13.3 µM) | MIC (Staphylococcus aureus [11]): 4 µg/mL (≈ 6.64 µM); MIC (Escherichia coli [15]): 32 µg/mL (≈ 53.1 µM); MIC (Acinetobacter lwoffii [22]): 8 µg/mL (≈ 13.3 µM); MIC (Pseudomonas aeruginosa [23]): > 128 µg/mL
NC[C@H]1O[C@H](O[C@H]2[C@H](O)[C@@H](OCc3ccccc3)[C@H](N)C[C@@H]2N)[C@H](N)[C@@H](OCc2ccccc2)[C@@H]1OCc1ccccc1 | > 128 | > 128 | > 128 | > 128 | > 128 | > 128 | > 128 | > 128 | 64 (≈ 108 µM) | > 128 | > 128 | > 128 | 64 (≈ 108 µM) | > 128 | > 128 | > 128 | > 128 | > 128 | > 128 | > 128 | MIC (Staphylococcus aureus [11]): 64 µg/mL (≈ 108 µM); MIC (Escherichia coli [15]): > 128 µg/mL; MIC (Acinetobacter lwoffii [22]): 128 µg/mL (≈ 216 µM); MIC (Pseudomonas aeruginosa [23]): > 128 µg/mL
NC[C@H]1O[C@H](O[C@H]2[C@H](O)[C@@H](O)[C@H](N)C[C@@H]2N)[C@H](N)[C@@H](O)[C@@H]1O [NEAMINE] | 32 (≈ 99.3 µM) | 32 (≈ 99.3 µM) | > 128 | > 128 | 16 (≈ 49.6 µM) | 16 (≈ 49.6 µM) | > 128 | > 128 | 128 (≈ 397 µM) | > 128 | > 128 | > 128 | 128 (≈ 397 µM) | 32 (≈ 99.3 µM) | > 128 | 32 (≈ 99.3 µM) | > 128 | > 128 | > 128 | > 128 | MIC (Staphylococcus aureus [11]): > 128 µg/mL; MIC (Escherichia coli [15]): 32 µg/mL (≈ 99.3 µM); MIC (Acinetobacter lwoffii [22]): 2 µg/mL (≈ 6.2 µM); MIC (Pseudomonas aeruginosa [23]): > 128 µg/mL
NC[C@H]1O[C@H](O[C@H]2[C@H](O)[C@@H](OCc3ccc4ccccc4c3)[C@H](N)C[C@@H]2N)[C@H](N)[C@@H](O)[C@@H]1O | > 128 | > 128 | > 128 | > 128 | > 128 | > 128 | – | – | – | – | – | – | – | – | – | – | – | – | – | > 128 | –
NC[C@H]1O[C@H](O[C@H]2[C@H](O)[C@@H](OCc3ccccc3)[C@H](N)C[C@@H]2N)[C@H](N)[C@@H](OCc2ccccc2)[C@@H]1O | > 128 | > 128 | > 128 | > 128 | > 128 | > 128 | – | – | – | – | – | – | – | – | – | – | – | – | – | – | –
NC[C@H]1O[C@H](O[C@H]2[C@H](O)[C@@H](OCc3ccc4ccccc4c3)[C@H](N)C[C@@H]2N)[C@H](N)[C@@H](O)[C@@H]1OCc1ccc2ccccc2c1 | 32 (≈ 53.1 µM) | 32 (≈ 53.1 µM) | 16 (≈ 26.5 µM) | 16 (≈ 26.5 µM) | 32 (≈ 53.1 µM) | 32 (≈ 53.1 µM) | 16 (≈ 26.5 µM) | > 128 | 16 (≈ 26.5 µM) | > 128 | 128 (≈ 212 µM) | 64 (≈ 106 µM) | 32 (≈ 53.1 µM) | > 128 | > 128 | 128 (≈ 212 µM) | > 128 | > 128 | > 128 | 64 (≈ 106 µM) | MIC (Staphylococcus aureus [11]): 32 µg/mL (≈ 53.1 µM); MIC (Escherichia coli [15]): 128 µg/mL (≈ 212 µM); MIC (Acinetobacter lwoffii [22]): 64 µg/mL (≈ 106 µM); MIC (Pseudomonas aeruginosa [23]): > 128 µg/mL
NC[C@H]1O[C@H](O[C@H]2[C@H](OCc3ccc4ccccc4c3)[C@@H](OCc3ccc4ccccc4c3)[C@H](N)C[C@@H]2N)[C@H](N)[C@@H](OCc2ccc3ccccc3c2)[C@@H]1OCc1ccc2ccccc2c1 | – | – | – | – | – | – | 64 (≈ 72.5 µM) | 64 (≈ 72.5 µM) | 64 (≈ 72.5 µM) | 64 (≈ 72.5 µM) | 64 (≈ 72.5 µM) | 64 (≈ 72.5 µM) | 64 (≈ 72.5 µM) | 128 (≈ 145 µM) | > 128 | 64 (≈ 72.5 µM) | 64 (≈ 72.5 µM) | 64 (≈ 72.5 µM) | 64 (≈ 72.5 µM) | – | MIC (Pseudomonas aeruginosa [23]): 64 µg/mL (≈ 72.5 µM)
NC[C@H]1O[C@H](O[C@H]2[C@H](O)[C@@H](OCc3ccc4ccccc4n3)[C@H](N)C[C@@H]2N)[C@H](N)[C@@H](OCc2ccc3ccccc3n2)[C@@H]1O | > 128 | > 128 | > 128 | > 128 | > 128 | > 128 | – | – | – | – | – | – | – | – | – | – | – | – | – | – | –
NC[C@H]1O[C@H](O[C@H]2[C@H](OCc3ccc4ccccc4c3)[C@@H](O)[C@H](N)C[C@@H]2N)[C@H](N)[C@@H](O)[C@@H]1O | > 128 | > 128 | > 128 | > 128 | > 128 | > 128 | – | – | – | – | – | – | – | – | – | – | – | – | – | – | –
NC[C@H]1O[C@H](O[C@H]2[C@H](O)[C@@H](O)[C@H](N)C[C@@H]2N)[C@H](N)[C@@H](OCc2ccc3ccccc3c2)[C@@H]1O | > 128 | > 128 | 128 (≈ 277 µM) | > 128 | > 128 | > 128 | – | – | – | – | – | – | – | – | – | – | – | – | – | – | –
NC[C@H]1O[C@H](O[C@H]2[C@H](O)[C@@H](O)[C@H](N)C[C@@H]2N)[C@H](N)[C@@H](O)[C@@H]1OCc1ccc2ccccc2c1 | > 128 | > 128 | > 128 | > 128 | > 128 | > 128 | – | – | – | – | – | – | – | – | – | – | – | – | – | – | –
